Measured values published in patent publication US20080287398A1, “COLD MENTHOL RECEPTOR-1 ANTAGONISTS” (priority 2007, published 2008).
Several values for one entry are separate records, joined by “and”; a condition that tells them apart may be missing. Identical values can stand only once. Like-named read-outs stand apart in the source and are kept apart here.

Target: T1, canine TRPM8 (Canis lupus familiaris, UniProt Q1A7N1)
T1 construct: expressed in transfected cells
Test: In vitro canine TRPM8 functional assay (Ca2+-sensitive dye, FLIPR/FDSS, icilin activation)
Type: cell-based
Conditions: HEK293 cells expressing canine TRPM8, icilin activation; for IC50: eight-point dose-response; for % I (0.5 μM): 0.5 μM compound; for % I (1 μM): 1 μM compound
In short: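 Icilin challenge (final concentration producing ~80% of maximal response) followed a 5 min compound exposure in canine TRPM8-HEK293 cells dye-loaded with Calcium 3. Intracellular Ca2+ was read on FLIPR/FDSS. EC50 and IC50 values came from nonlinear sigmoidal dose-response fits of basal-subtracted, percent-of-maximum data averaged over quadruplicates.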

[1] = HEK293, read-out: % I (0.5 μM), 0.5 μM compound
[2] = HEK293, 0.5 μM compound, read-out: % I (0.5 μM)

T1 sequence (Q1A7N1 1-1104): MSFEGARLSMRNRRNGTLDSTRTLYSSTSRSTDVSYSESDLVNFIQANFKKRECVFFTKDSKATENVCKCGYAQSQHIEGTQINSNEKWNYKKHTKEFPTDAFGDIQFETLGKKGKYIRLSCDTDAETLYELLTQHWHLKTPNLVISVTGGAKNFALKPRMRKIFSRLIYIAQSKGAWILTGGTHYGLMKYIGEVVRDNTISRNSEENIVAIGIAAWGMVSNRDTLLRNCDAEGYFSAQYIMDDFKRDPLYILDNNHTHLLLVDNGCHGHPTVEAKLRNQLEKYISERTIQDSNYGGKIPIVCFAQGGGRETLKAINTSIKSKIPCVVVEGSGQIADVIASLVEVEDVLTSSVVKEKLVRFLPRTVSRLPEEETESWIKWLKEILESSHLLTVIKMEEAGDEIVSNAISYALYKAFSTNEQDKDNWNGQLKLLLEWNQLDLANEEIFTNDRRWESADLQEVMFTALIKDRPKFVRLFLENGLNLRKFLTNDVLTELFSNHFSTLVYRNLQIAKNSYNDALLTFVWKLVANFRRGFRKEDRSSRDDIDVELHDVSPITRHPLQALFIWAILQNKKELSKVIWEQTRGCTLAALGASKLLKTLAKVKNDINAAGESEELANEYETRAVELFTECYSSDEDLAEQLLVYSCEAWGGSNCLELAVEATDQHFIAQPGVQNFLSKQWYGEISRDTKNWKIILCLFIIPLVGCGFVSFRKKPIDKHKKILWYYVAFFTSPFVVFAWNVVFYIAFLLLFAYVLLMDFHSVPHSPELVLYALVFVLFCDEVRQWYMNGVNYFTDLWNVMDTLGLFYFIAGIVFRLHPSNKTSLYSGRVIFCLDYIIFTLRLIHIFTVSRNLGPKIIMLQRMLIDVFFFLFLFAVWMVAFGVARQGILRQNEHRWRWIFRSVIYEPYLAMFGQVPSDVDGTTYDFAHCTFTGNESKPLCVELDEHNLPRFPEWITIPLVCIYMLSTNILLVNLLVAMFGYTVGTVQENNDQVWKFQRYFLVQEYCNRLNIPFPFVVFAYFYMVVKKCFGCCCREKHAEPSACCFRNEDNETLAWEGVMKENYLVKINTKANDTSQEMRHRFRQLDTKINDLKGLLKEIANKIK

Compound | IC50 (read-out: IC50) | % I (0.5 μM) | further results
CCOP(=O)(OCC)C(Cc1ccc(F)c(F)c1)c1sc2ccccc2c1-c1ccccc1 (centres unmarked) [Cpd 214, [2-(3,4-Difluoro-phenyl)-1-(3-phenyl-benzo[b]thiophen-2-yl)-ethyl]-phosphonic acid diethyl ester] | – | – | inhibition at 0.5 µM [1]: 101%; IC50 (IC50 (μM)): 0.08 µM
CCOP(=O)(OCC)C(Cc1ccc(F)c(F)c1)c1sc2ccccc2c1-c1cccc(F)c1 (centres unmarked) [Cpd 217, {2-(3,4-Difluoro-phenyl)-1-[3-(3-fluoro-phenyl)-benzo[b]thiophen-2-yl)-ethyl]-phosphonic acid diethyl ester] | – | – | inhibition at 0.5 µM [1]: 100%; IC50 (IC50 (μM)): 0.142 µM
CC(C)OP(=O)(OC(C)C)C(Cc1ccc(F)c(F)c1)c1sc2cccc(F)c2c1Br (centres unmarked) [Cpd 221, [1-(3-Bromo-4-fluoro-benzo[b]thiophen-2-yl)-2-(3,4-difluoro-phenyl)-ethyl]-phosphonic acid diisopropyl ester] | 0.032 µM | – | inhibition at 0.5 µM [2]: 102%
CCOP(=O)(OCC)C(Cc1ccc(F)c(O)c1)c1sc2ccccc2c1Br (centres unmarked) [Cpd 225, [1-(3-Bromo-benzo[b]thiophen-2-yl)-2-(4-fluoro-3-hydroxy-phenyl)-ethyl]-phosphonic acid diethyl ester] | – | – | inhibition at 0.5 µM [1]: 103%; IC50 (IC50 (μM)): 0.027 µM
CC(C)OP(=O)(OC(C)C)[C@H](Cc1ccc(F)c(C(F)(F)F)c1)c1sc2ccccc2c1Br [Cpd 243, (R)-[1-(3-Bromo-benzo[b]thiophen-2-yl)-2-(4-fluoro-3-trifluoromethyl-phenyl)-ethyl]-phosphonic acid diisopropyl ester] | 0.089 µM | – | inhibition at 0.5 µM [2]: 80%
CC(C)OP(=O)(OC(C)C)C(Cc1ccc(F)cc1C(F)(F)F)c1sc2ccccc2c1Br (centres unmarked) [Cpd 249] | 0.054 µM | 103% | –
CC(C)OP(=O)(OC(C)C)C(Cc1cccc(SC(F)(F)F)c1)c1sc2ccccc2c1Br (centres unmarked) [Cpd 250] | 0.048 µM | 103% | –
CSc1ccc(CC(c2sc3ccccc3c2Br)P(=O)(OC(C)C)OC(C)C)cc1 (centres unmarked) [Cpd 251] | 0.045 µM | 103% | –
CC(C)OP(=O)(OC(C)C)C(Cc1ccc(S(C)(=O)=O)cc1)c1sc2ccccc2c1Br (centres unmarked) [Cpd 252] | – | 44% | –
CC(C)OP(=O)(OC(C)C)C(Cc1ccc(F)c(Cl)c1)c1sc2ccccc2c1Cl (centres unmarked) [Cpd 253] | 0.034 µM | 103% | –
CC(C)OP(=O)(OC(C)C)C(Cc1ccc(F)cc1C(F)(F)F)c1sc2ccccc2c1Cl (centres unmarked) [Cpd 254] | 0.079 µM | 103% | –
CC(C)OP(=O)(OC(C)C)C(Cc1cccc(SC(F)(F)F)c1)c1sc2ccccc2c1Cl (centres unmarked) [Cpd 255] | 0.058 µM | 103% | –
CSc1ccc(CC(c2sc3ccccc3c2Cl)P(=O)(OC(C)C)OC(C)C)cc1 (centres unmarked) [Cpd 256] | 0.056 µM | 103% | –
CCOP(=O)(OCC)C(Cc1ccc(Cl)cc1)c1sc2ccccc2c1Br (centres unmarked) [Cpd 257] | 0.026 µM | 101% | –
CCOP(=O)(OCC)C(Cc1ccc(Cl)c(F)c1)c1sc2ccccc2c1Br (centres unmarked) [Cpd 258] | 0.045 µM | 102% | –
CCOP(=O)(OCC)C(Cc1cc(F)cc(Cl)c1)c1sc2ccccc2c1Br (centres unmarked) [Cpd 259] | 0.023 µM | 103% | –
CCOP(=O)(OCC)C(Cc1ccccc1C(F)(F)F)c1sc2ccccc2c1Br (centres unmarked) [Cpd 260] | 0.077 µM and 0.056 µM | 103% | –
CCOP(=O)(OCC)C(Cc1cc(C(F)(F)F)cc(C(F)(F)F)c1)c1sc2ccccc2c1Br (centres unmarked) [Cpd 261] | 0.073 µM and 0.077 µM | 102% | –
CCOP(=O)(OCC)C(Cc1ccc(S(=O)(=O)C(F)(F)F)cc1)c1sc2ccccc2c1Br (centres unmarked) [Cpd 262] | 0.066 µM | 103% | –
CC(C)OP(=O)(OC(C)C)C(Cc1ccc(S(=O)(=O)C(F)(F)F)cc1)c1sc2ccccc2c1Br (centres unmarked) [Cpd 263] | 0.022 µM | 103% | –
CC(C)OP(=O)(OC(C)C)C(Cc1ccc(S(=O)(=O)C(F)(F)F)cc1)c1sc2ccccc2c1Cl (centres unmarked) [Cpd 264] | 0.029 µM | 103% | –
CCOP(=O)(OCC)C(Cc1ccc(F)c(F)c1)c1cc2ccccc2o1 (centres unmarked) [Cpd 265] | 0.409 µM | – | % I (1 μM): 95%
CCOP(=O)(OCC)C(Cc1ccc(F)c(F)c1)c1oc2ccccc2c1Br (centres unmarked) [Cpd 266] | 0.051 µM | – | % I (1 μM): 103%
CC(C)OP(=O)(OC(C)C)C(Cc1cccc(Cl)c1F)c1sc2ccccc2c1Br (centres unmarked) [Cpd 267] | 0.047 µM and 0.029 µM | – | % I (1 μM): 101% and 102%
CC(C)OP(=O)(OC(C)C)C(Cc1cccc(C(F)(F)F)c1Cl)c1sc2ccccc2c1Br (centres unmarked) [Cpd 268] | 0.034 µM | 104% | –

Compound | IC50 (read-out: IC50) | % I (0.5 μM) | further results
CCOP(=O)(OCC)C(Cc1ccccc1Cl)c1sc2ccccc2c1Cl (centres unmarked) [Cpd 269] | 0.162 µM | 102% | –
CCOP(=O)(OCC)C(Cc1cccc(OC(F)(F)F)c1)c1sc2ccccc2c1Cl (centres unmarked) [Cpd 270] | 0.202 µM | 102% | –
CCOP(=O)(OCC)C(Cc1ccc(OC(F)(F)F)c(Cl)c1)c1sc2ccccc2c1Cl (centres unmarked) [Cpd 271] | 0.104 µM | 103% | –
CCOP(=O)(OCC)C(Cc1cccc(Cl)c1F)c1sc2ccccc2c1Cl (centres unmarked) [Cpd 272] | 0.114 µM | 103% | –
CCOP(=O)(OCC)C(Cc1ccc(C(F)(F)F)c(F)c1)c1sc2ccccc2c1Cl (centres unmarked) [Cpd 273] | 0.116 µM | 103% | –
CCOP(=O)(OCC)C(Cc1cc(C(F)(F)F)ccc1Cl)c1sc2ccccc2c1Cl (centres unmarked) [Cpd 274] | 0.301 µM | 95% | –
CCOP(=O)(OCC)C(Cc1cccc(Br)c1)c1sc2ccccc2c1Cl (centres unmarked) [Cpd 275] | 0.104 µM | 103% | –
CCOP(=O)(OCC)C(Cc1cc(F)cc(Cl)c1)c1sc2ccccc2c1Cl (centres unmarked) [Cpd 276] | 0.114 µM | 103% | –
CCOP(=O)(OCC)C(Cc1ccc(OC(F)(F)F)cc1)c1sc2ccccc2c1Cl (centres unmarked) [Cpd 277] | 0.116 µM | 103% | –
CCOP(=O)(OCC)C(Cc1cc(F)cc(C(F)(F)F)c1)c1sc2ccccc2c1Cl (centres unmarked) [Cpd 278] | 0.159 µM | 103% | –
CCOP(=O)(OCC)C(Cc1cccc(C#N)c1)c1sc2ccccc2c1Br (centres unmarked) [Cpd 309] | 0.088 µM | 103% | –
CCOP(=O)(OCC)C(Cc1cccc(-n2cccc2)c1)c1sc2ccccc2c1Br (centres unmarked) [Cpd 310] | 0.042 µM | 102% | –
CCOP(=O)(OCC)C(Cc1ccc(OC(F)F)cc1)c1sc2ccccc2c1Br (centres unmarked) [Cpd 311] | 0.053 µM | 102% | –
CCOP(=O)(OCC)C(Cc1ccc(C#N)cc1)c1sc2ccccc2c1Br (centres unmarked) [Cpd 312] | 0.089 µM | 102% | –
CCOP(=O)(OCC)C(Cc1cccc(C(=O)OC)c1)c1sc2ccccc2c1Br (centres unmarked) [Cpd 313] | 0.083 µM | 102% | –
CCOP(=O)(OCC)C(Cc1cccc(OC)c1)c1sc2ccccc2c1Br (centres unmarked) [Cpd 314] | 0.029 µM and 0.021 µM | 103% and 104% | –
CCOP(=O)(OCC)C(Cc1cccc([N+](=O)[O-])c1)c1sc2ccccc2c1Br (centres unmarked) [Cpd 315] | – | – | inhibition at 0.5 µM [1]: 103%; IC50 (IC50 (μM)): 0.041 µM
CCOP(=O)(OCC)C(Cc1cccc(O)c1)c1sc2ccccc2c1Br (centres unmarked) [Cpd 316] | 0.032 µM and 0.02 µM | 103% and 104% | –
COc1cccc(CC(c2sc3ccccc3c2Br)P(=O)(OC(C)C)OC(C)C)c1 (centres unmarked) [Cpd 317] | 0.021 µM | 102% | –
CCOP(=O)(OCC)C(Cc1cccc(N)c1)c1sc2ccccc2c1Br (centres unmarked) [Cpd 318, [2-(3-Amino-phenyl)-1-(3-bromo-benzo[b]thiophen-2-yl)-ethyl]-phosphonic acid diethyl ester] | – | – | inhibition at 0.5 µM [1]: 100%; IC50 (IC50 (μM)): 0.211 µM
CCOP(=O)(OCC)C(Cc1cc(OC)cc(OC)c1)c1sc2ccccc2c1Br (centres unmarked) [Cpd 319] | 0.026 µM | 103% | –
CCOP(=O)(OCC)C(Cc1ccccc1OC)c1sc2ccccc2c1Br (centres unmarked) [Cpd 320] | 0.028 µM | 103% | –
CCOP(=O)(OCC)C(Cc1ccc(OC)cc1)c1sc2ccccc2c1Br (centres unmarked) [Cpd 321] | 0.043 µM | 102% | –
CCOP(=O)(OCC)C(Cc1cc(O)cc(O)c1)c1sc2ccccc2c1Br (centres unmarked) [Cpd 322] | – | 45% | –
CCOP(=O)(OCC)C(Cc1ccccc1O)c1sc2ccccc2c1Br (centres unmarked) [Cpd 323] | 0.009 µM | 104% | –
